Columns and labels:
[1] = tested on: Rhizopus delemar melanin production; conditions: cited from earlier work
[2] = tested on: R. delemar tyrosinase enzyme activity; format: cell-based, Rhizopus delemar; conditions: 10 μg/ml, 3 days, protein extract with 10 mM L-DOPA
[3] = tested on: Rhizopus delemar; assay: Growth; format: cell-based; conditions: kojic acid 50 μg/ml, 3 days

Structure (SMILES)	Reduction of melanin production from R. delemar [1]	Inhibitory effect on melanin biosynthesis (tyrosinase activity) of R. delemar [2]	Effect on growth of fungal hyphae [3]
CC(C)c1ccc(C=O)cc1 [Cuminaldehyde, cuminaldehyde]	causes reduction of melanin production	highest	–
O=c1cc(CO)occ1O [Kojic acid]	–	highest	significant reduction in the growth of fungal hyphae
